{
  "source": "patent US20020176842A1",
  "about": "“Extended release of active ingredients” (priority 2001, published 2002)",
  "test": "Spectrophotometric absorption test method (uptake of drug by unloaded resin)",
  "format": "physicochemical",
  "settings": "within 5 hours; 55 ml of 98 mg/l indomethacin in simulated intestinal fluid, 43 mg Cholestyramine USP, 318 nm",
  "procedure": "It is important that the drug be absorbed by the resin. The following test method is useful in determining drug absorption by the resin. In this illustration of the test method, indomethacin and cholestyramine are used. Equipment was set up as described in Example 1, except that the effluent from the uv cell was directed back to the inlet of the pump to produce a circulation flow. 55 ml of a 98 mg/1 solution of indomethacin in simulated intestinal fluid, prepared as described below, was charged to the filtration cell and the pump and stirrer started. Flow rate was approximately 6 ml/min. Absorbance readings were taken on the uv spectrophotometer at a wavelength of 318nm until a steady baseline was obtained. 43 mg of Cholestyramine USP that had been screened to remove particles <75 microns was then added to the cell. Absorbance readings were then taken at frequent intervals to observe the uptake of indomethacin. The absorbance readings were used to calculate the indomethacin concentration from a suitably determined calibration curve and to calculate the total amount of indomethacin absorbed by the resin. In the case of the indomethacin, 92% was absorbed within 5 hours.\nPreparation of simulated intestinal fluid: a solution of 6.8 g/l potassium dihydrogen phosphate in deionized water was prepared and sufficient 0.2 mol/1 sodium hydroxide s added to achieve a pH of 7.5.",
  "data": [
    {"smiles": "COc1ccc2c(c1)c(CC(=O)O)c(C)n2C(=O)c1ccc(Cl)cc1", "note": "[indomethacin]", "values": [
      {"measurement": "indomethacin absorbed by the resin", "value": 92, "unit": "%"}
    ]}
  ]
}
